pIC50, pKi: −log10 of the molar value.
How the values were obtained:
CDK2/Cyclin A2 = CDK2/Cyclin A2 (Homo sapiens, UniProt P24941); experiment: Inhibition of CDK2/Cyclin A2 (unknown origin) after 10 mins by ADP-Glo reagent based assay; type: protein-complex assay
HepG2 [1] = experiment: Antiproliferative activity against human HepG2 cells assessed as inhibition of cell growth after 48 hrs by MTT assay; type: functional, cell-based; settings: HepG2, 48 h
[2] = Selectivity index, ratio of CC50 for human THLE2 cells to IC50 for human HepG2 cells; type: toxicity; settings: THLE2 cells and HepG2 cells, read-out: Ratio CC50/IC50
MCF7 [3] = experiment: Antiproliferative activity against human MCF7 cells assessed as inhibition of cell growth after 48 hrs by MTT assay; type: functional, cell-based; settings: MCF7, 48 h
[4] = Cytotoxicity against human THLE2 cells assessed as reduction in cell viability by MTT assay; type: cell-based, THLE-2
[5] = Cytotoxicity against human MCF10A cells assessed as reduction in cell viability by MTT assay; type: cell-based, MCF-10A
HepG2 [6] = experiment: Cytotoxicity against human HepG2 cells
MCF7 [7] = experiment: Cytotoxicity against human MCF7 cells
MCF7 [8] = experiment: Induction of apoptosis in human MCF7 cells assessed as fold increase in caspase-9 concentration at IC50 by ELISA; type: functional
MCF7 [9] = experiment: Induction of apoptosis in human MCF7 cells assessed as caspase-9 concentration at IC50 by ELISA (reference value: 2.018 +/- 0.14 ng/ml); type: functional
[10] = biological target: Cyclin-dependent kinase 7/ cyclin H (Homo sapiens, UniProt P50613); experiment: Inhibition of CDK7/cyclin H (unknown origin); type: protein-complex assay
MCF7 [11] = experiment: Induction of cell cycle arrest in human MCF7 cells assessed as accumulation at G2/M phase at IC50 after 48 hrs by propidium iodide staining based Flow cytometric analysis (reference value: […]%); type: functional
MCF7 [12] = experiment: Induction of cell cycle arrest in human MCF7 cells assessed as accumulation at pre-G1 phase at IC50 after 48 hrs by propidium iodide staining based Flow cytometric analysis (reference value: 1.84%); type: functional
[13] = biological target: Cyclin-dependent kinase 4/cyclin D1 (Homo sapiens, UniProt P11802); experiment: Inhibition of CDK4/cyclin D1 (unknown origin); type: protein-complex assay
MCF7 [14] = experiment: Induction of apoptosis in human MCF7 cells assessed as total apoptotic cells at IC50 after 48 hrs by Annexin V-FITC/propidium iodide staining based flow cytometric analysis (reference value: 1.84 %); type: functional
MCF7 [15] = experiment: Induction of apoptosis in human MCF7 cells assessed as early apoptotic cells at IC50 after 48 hrs by Annexin V-FITC/propidium iodide staining based flow cytometric analysis (reference value: 0.57 %); type: functional
[16] = biological target: Cyclin-dependent kinase 1/cyclin B1 (Homo sapiens, UniProt P06493); experiment: Inhibition of CDK1/cyclin B (unknown origin); type: protein-complex assay
MCF7 [17] = experiment: Induction of cell cycle arrest in human MCF7 cells assessed as accumulation at G0/G1 phase at IC50 after 48 hrs by propidium iodide staining based Flow cytometric analysis (reference value: 55.71%); type: functional
[18] = Selectivity index, ratio of CC50 for human MCF10A cells to IC50 for human MCF7 cells; type: toxicity; settings: MCF10A cells and MCF7 cells, read-out: Ratio CC50/IC50
MCF7 [19] = experiment: Induction of apoptosis in human MCF7 cells assessed as late apoptotic cells at IC50 after 48 hrs by Annexin V-FITC/propidium iodide staining based flow cytometric analysis (reference value: 0.28 %); type: functional
MCF7 [20] = experiment: Induction of cell cycle arrest in human MCF7 cells assessed as accumulation at S phase at IC50 after 48 hrs by propidium iodide staining based Flow cytometric analysis (reference value: 39.15%); type: functional
HepG2 [21] = experiment: Induction of apoptosis in human HepG2 cells assessed as late apoptotic cells at IC50 after 48 hrs by Annexin V-FITC/propidium iodide staining based flow cytometric analysis (reference value: 0.18 %); type: functional
HepG2 [22] = experiment: Induction of apoptosis in human HepG2 cells assessed as fold increase in caspase-3 activation at IC50 by ELISA; type: functional
HepG2 [23] = experiment: Induction of cell cycle arrest in human HepG2 cells assessed as accumulation at G0/G1 phase at IC50 after 48 hrs by propidium iodide staining based Flow cytometric analysis (reference value: 47.29%); type: functional
HepG2 [24] = experiment: Induction of cell cycle arrest in human HepG2 cells assessed as accumulation at G2/M phase at IC50 after 48 hrs by propidium iodide staining based Flow cytometric analysis (reference value: 7.34%); type: functional
HepG2 [25] = experiment: Induction of apoptosis in human HepG2 cells assessed as total apoptotic cells at IC50 after 48 hrs by Annexin V-FITC/propidium iodide staining based flow cytometric analysis (reference value: 1.52 %); type: functional
HepG2 [26] = experiment: Induction of cell cycle arrest in human HepG2 cells assessed as accumulation at pre-G1 phase at IC50 after 48 hrs by propidium iodide staining based Flow cytometric analysis (reference value: 1.52%); type: functional
HepG2 [27] = experiment: Induction of apoptosis in human HepG2 cells assessed as early apoptotic cells at IC50 after 48 hrs by Annexin V-FITC/propidium iodide staining based flow cytometric analysis (reference value: 0.38 %); type: functional
HepG2 [28] = experiment: Induction of cell cycle arrest in human HepG2 cells assessed as accumulation at S phase at IC50 after 48 hrs by propidium iodide staining based Flow cytometric analysis (reference value: 45.37%); type: functional
HepG2 [29] = experiment: Induction of apoptosis in human HepG2 cells assessed as caspase-3 concentration at IC50 by ELISA (reference value: 0.03822 +/- 0.0029 ng/ml); type: functional

Chain of Cyclin-dependent kinase 7/ cyclin H (P51946 whole entry): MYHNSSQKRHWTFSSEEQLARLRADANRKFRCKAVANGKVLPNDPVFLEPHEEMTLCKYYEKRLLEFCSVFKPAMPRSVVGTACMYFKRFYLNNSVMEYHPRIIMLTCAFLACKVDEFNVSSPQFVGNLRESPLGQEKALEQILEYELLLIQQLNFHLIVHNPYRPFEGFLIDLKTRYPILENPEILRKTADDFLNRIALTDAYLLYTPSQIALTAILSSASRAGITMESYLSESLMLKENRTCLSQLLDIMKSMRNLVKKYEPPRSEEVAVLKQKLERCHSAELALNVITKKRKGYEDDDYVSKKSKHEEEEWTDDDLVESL
Chain of Cyclin-dependent kinase 7/ cyclin H (P50613 whole entry): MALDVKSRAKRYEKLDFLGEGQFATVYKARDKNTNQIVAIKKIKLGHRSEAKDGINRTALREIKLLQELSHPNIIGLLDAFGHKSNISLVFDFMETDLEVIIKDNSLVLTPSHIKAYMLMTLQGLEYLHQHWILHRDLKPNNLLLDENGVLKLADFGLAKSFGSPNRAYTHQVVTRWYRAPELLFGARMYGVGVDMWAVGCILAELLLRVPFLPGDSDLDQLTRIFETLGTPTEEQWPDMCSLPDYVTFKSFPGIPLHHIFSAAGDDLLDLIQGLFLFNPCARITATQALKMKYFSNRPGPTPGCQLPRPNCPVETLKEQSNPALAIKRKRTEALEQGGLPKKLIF
Chain of Cyclin-dependent kinase 4/cyclin D1 (P11802 whole entry): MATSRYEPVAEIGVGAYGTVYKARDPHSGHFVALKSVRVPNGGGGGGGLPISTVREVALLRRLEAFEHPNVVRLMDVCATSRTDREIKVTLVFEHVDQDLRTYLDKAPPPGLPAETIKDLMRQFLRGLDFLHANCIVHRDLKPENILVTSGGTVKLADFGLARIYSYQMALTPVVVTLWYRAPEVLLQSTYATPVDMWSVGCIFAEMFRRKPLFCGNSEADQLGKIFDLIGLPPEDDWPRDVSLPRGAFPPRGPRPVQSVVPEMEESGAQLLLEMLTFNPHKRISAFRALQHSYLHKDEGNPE
Chain of Cyclin-dependent kinase 4/cyclin D1 (P24385 whole entry, further chain): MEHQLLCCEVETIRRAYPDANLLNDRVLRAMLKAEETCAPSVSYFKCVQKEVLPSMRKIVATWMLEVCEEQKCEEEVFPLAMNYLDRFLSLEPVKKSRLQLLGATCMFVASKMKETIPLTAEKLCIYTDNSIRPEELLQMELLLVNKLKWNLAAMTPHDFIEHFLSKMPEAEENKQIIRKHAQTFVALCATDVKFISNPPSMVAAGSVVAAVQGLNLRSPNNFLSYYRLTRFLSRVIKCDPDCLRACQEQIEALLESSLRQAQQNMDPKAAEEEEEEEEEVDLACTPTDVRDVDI
Chain of Cyclin-dependent kinase 1/cyclin B1 (P06493 whole entry): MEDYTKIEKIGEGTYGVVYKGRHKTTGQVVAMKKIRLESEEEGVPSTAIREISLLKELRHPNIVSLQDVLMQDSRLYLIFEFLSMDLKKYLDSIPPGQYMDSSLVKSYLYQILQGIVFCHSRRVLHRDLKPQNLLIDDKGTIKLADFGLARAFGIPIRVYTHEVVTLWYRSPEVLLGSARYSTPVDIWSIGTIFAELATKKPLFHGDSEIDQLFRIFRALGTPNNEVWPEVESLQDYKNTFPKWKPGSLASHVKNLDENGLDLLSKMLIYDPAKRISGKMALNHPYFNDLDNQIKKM
Chain of Cyclin-dependent kinase 1/cyclin B1 (P14635 whole entry, further chain): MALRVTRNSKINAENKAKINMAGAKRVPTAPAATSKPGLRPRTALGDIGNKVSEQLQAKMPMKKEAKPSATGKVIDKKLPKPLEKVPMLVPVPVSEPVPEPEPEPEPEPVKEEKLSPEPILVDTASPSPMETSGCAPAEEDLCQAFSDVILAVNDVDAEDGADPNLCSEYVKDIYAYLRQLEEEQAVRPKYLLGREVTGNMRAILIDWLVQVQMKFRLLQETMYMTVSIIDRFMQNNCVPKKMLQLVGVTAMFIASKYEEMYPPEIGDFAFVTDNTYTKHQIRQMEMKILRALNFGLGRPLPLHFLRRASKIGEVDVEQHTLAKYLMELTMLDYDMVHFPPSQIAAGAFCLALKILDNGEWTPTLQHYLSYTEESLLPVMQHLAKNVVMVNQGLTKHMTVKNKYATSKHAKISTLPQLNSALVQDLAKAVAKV

SMILES	pIC50 (CDK2/Cyclin A2)	pIC50 (HepG2 [1])	pIC50 (MCF7 [3])	selectivity ratio [2]	CC50 [4]	further results
O=C(C=CNc1cc(-c2ccccc2)nn1-c1ccccc1)c1cccs1	6.70	5.62	4.81	8.22	19900 nM	–
c1ccc(-c2nn(-c3ccccc3)c3nccc(-c4cccs4)c23)cc1	7.25	4.41	4.41	–	–	–
c1ccc(-c2ccnc3c2c(-c2ccccc2)nn3-c2ccccc2)cc1	6.46	5.49	4.55	10.7	34200 nM	–
CC(C)c1cnn2c(NCc3ccccc3)cc(N[C@@H](CO)[C@H](O)CO)nc12	–	–	–	–	–	pIC50 (HepG2 [6]): 6.00; pIC50 (MCF7 [7]): 6.52
CN1CCN(c2ccc(-c3c(C#N)c(-c4ccccc4)nc4c3c(-c3ccccc3)nn4-c3ccccc3)cc2)CC1	6.79	5.50	4.84	4.8	15100 nM	–
CN1CCN(c2ccc(-c3c(C#N)c(-c4ccc(Cl)cc4)nc4c3c(-c3ccccc3)nn4-c3ccccc3)cc2)CC1	6.89	4.84	5.57	–	–	–
N#Cc1c(-c2ccc(Cl)cc2)nc2c(c(-c3ccccc3)nn2-c2ccccc2)c1-c1ccc(N2CCCCC2)cc1	6.71	5.49	4.97	3.89	12500 nM	–
Cc1ccc(-c2ccnc3c2c(-c2ccccc2)nn3-c2ccccc2)cc1	7.09	4.97	5.25	–	–	–
COc1ccc(-c2ccnc3c2c(-c2ccccc2)nn3-c2ccccc2)cc1	6.57	5.18	4.54	–	–	–
O=C(C=CNc1cc(-c2ccccc2)nn1-c1ccccc1)c1ccc(Cl)cc1	6.91	4.39	5.09	–	–	–
N#Cc1c(-c2ccccc2)nc2c(c(-c3ccccc3)nn2-c2ccccc2)c1-c1ccc(N2CCCCC2)cc1	6.48	4.51	4.57	–	–	–

Continued by rising pIC50 (HepG2 [1]), values first:

pIC50 (CDK2/Cyclin A2)	pIC50 (HepG2 [1])	pIC50 (MCF7 [3])	SMILES	selectivity ratio [2]	CC50 [4]	further results
6.41	4.21	4.21	Clc1ccc(-c2ccnc3c2c(-c2ccccc2)nn3-c2ccccc2)cc1	–	–	–
6.88	4.22	5.04	O=C(C=CNc1cc(-c2ccccc2)nn1-c1ccccc1)c1ccc(F)cc1	–	–	–
7.09	4.30	4.88	Brc1ccc(-c2ccnc3c2c(-c2ccccc2)nn3-c2ccccc2)cc1	–	–	–
6.19	4.67	5.44	N#Cc1c(-c2ccc(Cl)cc2)nc2c(c(-c3ccccc3)nn2-c2ccccc2)c1-c1ccc(N2CCOCC2)cc1	–	–	–
7.07	4.90	5.56	COc1ccc(-c2nc3c(c(-c4ccccc4)nn3-c3ccccc3)c(-c3ccc(N4CCCCC4)cc3)c2C#N)cc1	–	–	–
7.02	4.98	5.48	N#Cc1c(-c2ccccc2)nc2c(c(-c3ccccc3)nn2-c2ccccc2)c1-c1ccc(N2CCOCC2)cc1	–	–	–
6.29	5.06	4.66	O=C(C=CNc1cc(-c2ccccc2)nn1-c1ccccc1)c1ccc(Br)cc1	–	–	–
6.66	5.09	6.03	COc1ccc(-c2nc3c(c(-c4ccccc4)nn3-c3ccccc3)c(-c3ccc(N4CCOCC4)cc3)c2C#N)cc1	–	–	fold change (FC) (MCF7 [8]): 9; Activity (MCF7 [9]): 20.32 ng/mL; pIC50 [10]: 6.50; pKi [10]: 6.69; Activity (MCF7 [11]): 21.2%; pKi (CDK2/Cyclin A2): 6.88; Activity (MCF7 [12]): 24.36%; pIC50 [13]: 4.67; pKi [13]: 4.94; Activity (MCF7 [14]): 24.4%; Activity (MCF7 [15]): 9.36%; pIC50 [16]: 6.14; pKi [16]: 6.36; Activity (MCF7 [17]): 44.38%; CC50 [5]: 55700 nM; selectivity ratio [18]: 59.9; Activity (MCF7 [19]): 9.86%; Activity (MCF7 [20]): 34.42%
7.20	5.14	4.52	Cc1ccc(C(=O)C=CNc2cc(-c3ccccc3)nn2-c2ccccc2)cc1	–	–	–
–	5.14	5.73	COc1cccc2c1C(=O)c1c(O)c3c(c(O)c1C2=O)C[C@@](O)(C(=O)CO)C[C@@H]3O[C@H]1C[C@H](N)[C@H](O)[C@H](C)O1 [DOXORUBICIN]	–	12700 nM	CC50 [5]: 13900 nM
6.50	5.58	5.02	O=C(C=CNc1cc(-c2ccccc2)nn1-c1ccccc1)c1ccccc1	20.1	53400 nM	–
7.38	5.69	5.89	COc1ccc(C(=O)C=CNc2cc(-c3ccccc3)nn2-c2ccccc2)cc1	17.3	35200 nM	fold change (FC) (MCF7 [8]): 9; Activity (MCF7 [9]): 18.96 ng/mL; pIC50 [10]: 6.49; pKi [10]: 6.68; Activity (MCF7 [11]): 3.47%; pKi (CDK2/Cyclin A2): 7.60; Activity (MCF7 [12]): 36.51%; pIC50 [13]: 4.78; pKi [13]: 5.04; Activity (MCF7 [14]): 36.51%; Activity (MCF7 [15]): 2.69%; pIC50 [16]: 6.02; pKi [16]: 6.24; Activity (MCF7 [17]): 37.29%; CC50 [5]: 16900 nM; selectivity ratio [18]: 13.1; Activity (MCF7 [19]): 20.64%; Activity (MCF7 [20]): 59.24%
7.38	5.80	5.80	Fc1ccc(-c2ccnc3c2c(-c2ccccc2)nn3-c2ccccc2)cc1	12.5	19700 nM	Activity (HepG2 [21]): 17.43%; fold change (FC) (HepG2 [22]): 10; Activity (HepG2 [23]): 38.47%; pIC50 [10]: 5.70; pKi [10]: 5.90; pKi (CDK2/Cyclin A2): 7.60; Activity (HepG2 [24]): 37.64%; Activity (HepG2 [25]): 32.19%; pIC50 [13]: 5.16; pKi [13]: 5.42; Activity (HepG2 [26]): 32.19%; Activity (HepG2 [27]): 6.15%; Activity (HepG2 [28]): 23.89%; pIC50 [16]: 5.87; pKi [16]: 6.08; CC50 [5]: 28300 nM; selectivity ratio [18]: 18; Activity (HepG2 [29]): 0.3872 ng/mL
7.18	5.88	5.58	COc1ccc(-c2nc3c(c(-c4ccccc4)nn3-c3ccccc3)c(-c3ccc(N4CCN(C)CC4)cc3)c2C#N)cc1	28.2	37500 nM	Activity (HepG2 [21]): 11.17%; fold change (FC) (HepG2 [22]): 10; Activity (HepG2 [23]): 48.02%; pIC50 [10]: 6.65; pKi [10]: 6.84; pKi (CDK2/Cyclin A2): 7.40; Activity (HepG2 [24]): 3.62%; Activity (HepG2 [25]): 22.2%; pIC50 [13]: 3.98; pKi [13]: 4.24; Activity (HepG2 [26]): 22.15%; Activity (HepG2 [27]): 6.07%; Activity (HepG2 [28]): 48.36%; pIC50 [16]: 6.68; pKi [16]: 6.90; Activity (HepG2 [29]): 0.3714 ng/mL

— ChEMBL document CHEMBL4811242, “Mechanistic selectivity investigation and 2D-QSAR study of some new antiproliferative pyrazoles and pyrazolopyridines as potential CDK2 inhibitors” (Eur J Med Chem, 2021)
